From patent US12077607B2, “Functional and therapeutic effects of PAR4 cleavage by cathepsin G” (UNIVERSITY OF UTAH RESEARCH FOUNDATION, priority 2021, dated 2024)
Residue numbers refer to the chain shown, from its start.

Key:
Assay type in all cases: cell-based
PAR4-S66E = biological target: T1, PAR4-S66E (Homo sapiens, UniProt Q96RI0, S66E); assay: PAR4 mutant calcium flux assay, HEK293T/17 cells, S66E; details: 100 nM vorapaxar
T1 construct: Flag; expressed in transfected cells; host or cells: HEK293T/17 (ATCC CRL-11268)
T1 sequence (Q96RI0 18-385 S66E): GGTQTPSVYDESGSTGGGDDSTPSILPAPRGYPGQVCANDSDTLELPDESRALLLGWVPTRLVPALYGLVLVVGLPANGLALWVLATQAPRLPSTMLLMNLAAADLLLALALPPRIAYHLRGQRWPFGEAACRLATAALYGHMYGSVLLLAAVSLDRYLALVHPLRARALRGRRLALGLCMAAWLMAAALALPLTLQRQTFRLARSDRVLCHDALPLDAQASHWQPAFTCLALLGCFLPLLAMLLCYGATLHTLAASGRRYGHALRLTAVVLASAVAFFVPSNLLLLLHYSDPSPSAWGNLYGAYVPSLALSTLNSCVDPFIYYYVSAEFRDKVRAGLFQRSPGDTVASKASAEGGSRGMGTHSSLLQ
Description: (§1) PAR4 mutant calcium flux assays. Using Quikchange Lightning Site-Directed mutagenesis (Agilent) per manufacturing instructions, pCMV-Flag-PAR4-S66E, pCMV-Flag-PAR4-S67E, and pCMV-Flag-PAR4-R68E were generated from mutation of pCMV-Flag-PAR4 and confirmed by sequencing (University of Utah DNA Sequencing Core). Prior to transfection, HEK293T/17 cells (ATCC CRL-11268) were seeded at 4.5×10^4/mL. The following day, cells were transfected with the plasmid of interest using Lipofectamine 2000 (Invitrogen, Carlsbad, CA, USA). Twenty-four hours after transfection, media was removed and replaced with Optimem w/Glutamax (Gibco, Carlsbad, CA, USA) containing vorapaxar (100 nM) (Cayman Chemical, Ann Arbor, MI, USA) and Fura2-QBT (Molecular Devices). Following incubation for 1 hour at 37° C., plate was placed in the Flexstation 3 (Molecular Devices) where agonists, Tyrode's Buffer, cathepsin G (2.5 μM), or α-thrombin (1.5 U/mL), were injected onto cells and calcium mobilization was monitored and recorded.

PAR4-R68E = biological target: T2, PAR4-R68E (Homo sapiens, UniProt Q96RI0, R68E); assay: PAR4 mutant calcium flux assay, HEK293T/17 cells, R68E; details: 100 nM vorapaxar
T2 construct: Flag; expressed in transfected cells; host or cells: HEK293T/17 (ATCC CRL-11268)
T2 sequence (Q96RI0 18-385 R68E): T1 sequence (Q96RI0 18-385 S66E) with E49S, R51E
Description: as §1

washed platelets = assay: Platelet aggregation of human washed platelets; details: for platelet aggregation, species comparison: humans: 1 U/mL human thrombin, 1 μM human CatG or 1 mM RA-11mer
Description: (§2) Platelet isolation, aggregation, and activation. Human washed platelets were prepared and resuspended in Tyrode's Buffer at 2×10^8/mL as described (Edelstein et al., Nat Med. 2013; 19(12):1609-1616). For human and dog platelet comparisons, platelets were prepared using a modified human platelet protocol with final concentrations of […] (Cayman Chemical, Ann Arbor, MI, USA) used during centrifugation steps. Centrifugations after Tyrode's washes was decreased to 1,250×g as described in Cremer et al., PLOS One. 2019; 14(11): e0224891. Platelet aggregation was measured under stirring conditions at 37° C. using a PAP-8E aggregometer after treatment with the following agonists: arachidonic acid (Bio/Data Corporation, Horsham, PA, USA), cathepsin G, elastase, proteinase 3 (Athens Research Group), α-thrombin (Sigma, St. Louis, MO, USA), PAR-1 peptide (SFLLRN) (GL Biochem, China). P-selectin and PAC-1 were measured as previously described (Yee et al., J Thromb Haemost. 2006; 4(9):2043-2050; Tourdot et al., Arterioscler Thromb Vasc Biol. 2014; 34(12):2644-2650).
GYPGQV-NH2 (SEQ ID NO: 5), RALLLGWVPTR-NH2 (SEQ ID NO: 1), ALLLGWVPTR-NH2 (SEQ ID NO: 2), RALLLG-NH2 (SEQ ID NO: 4). Peptides were synthesized by BIOMATIK (Wilmington, DE, USA) at similar purities. All peptides were suspended in 50% DMSO and 50% ethanol. To measure platelet activation, washed platelets were stimulated with various concentrations of the peptide in the presence of CD41-APC, P-selectin (PE) and PAC-1 (FITC) for 15 minutes at 37° C. and then fixed with FACS Lysis Buffer. Samples were immediately run on a Cytoflex flow cytometer. In some experiments, platelets were stimulated with peptides and platelet aggregation performed as described above. Platelet calcium flux was induced by RALLLGWVPTR (2 mM; SEQ ID NO: 1), CatG (500 nM), ALLLGWVPTR (2 mM; SEQ ID NO: 2) or tyrodes buffer and monitored as described above.

PAR4-S67E = biological target: T3, PAR4-S67E (Homo sapiens, UniProt Q96RI0, S67E); assay: PAR4 mutant calcium flux assay, HEK293T/17 cells, S67E; details: 100 nM vorapaxar
T3 construct: Flag; expressed in transfected cells; host or cells: HEK293T/17 (ATCC CRL-11268)
T3 sequence (Q96RI0 18-385 S67E): T1 sequence (Q96RI0 18-385 S66E) with E49S, S50E
Description: as §1

rat washed platelets = assay: Platelet aggregation of rat washed platelets; details: 1 U/mL human thrombin, 1 μM human CatG or 1 mM RA-11mer
Description: Platelet and neutrophil isolation. Platelets and neutrophils were isolated as previously described (Yost et al., J Clin Invest. 2016; 126(10):3783-3798). Platelet isolation from dogs, rats and mice was approved by the IACUC. Platelet activation and aggregation were performed as previously described (Manne et al., Blood. 2020; 136(11): 1317-1329).
as §2

| Substance | thrombin-induced calcium flux, S66E mutant compared with WT (PAR4-S66E; thrombin 1.5 U/mL) | thrombin-induced calcium flux, R68E mutant compared with WT (PAR4-R68E; thrombin 1.5 U/mL) | platelet aggregation, species comparison: humans (washed platelets) | thrombin-induced calcium flux, S67E mutant compared with WT (PAR4-S67E; thrombin 1.5 U/mL) | platelet aggregation, species comparison: rats (rat washed platelets) | CatG-induced calcium flux, S66E mutant compared with WT (PAR4-S66E; CatG 2.5 μM) | CatG-induced calcium flux, R68E mutant compared with WT (PAR4-R68E; CatG 2.5 μM, P<0.001) | potency as activator of PAR4, comparison (washed platelets; from platelet aggregation data) | platelet aggregation induced by neutrophil serine protease (washed platelets; washed platelets, 400 nM protease) | CatG-induced calcium flux, S67E mutant compared with WT (PAR4-S67E; CatG 2.5 μM, P<0.001) |
| --- | --- | --- | --- | --- | --- | --- | --- | --- | --- | --- |
| thrombin | None of the PAR4 mutants were significantly different than WT | None of the PAR4 mutants were significantly different than WT | induced platelet aggregation | None of the PAR4 mutants were significantly different than WT | induced platelet aggregation |  |  |  |  |  |
| CatG: serine protease cathepsin G released by activated neutrophils |  |  | induced platelet aggregation |  | only induced platelet aggregation in humans and dogs | slight decrease | significantly less calcium flux than WT | much less potent than the thrombin enzyme | only protease to induce platelet aggregation | significantly less calcium flux than WT |
